The Ki is a dissociation constant, usually derived from enzyme kinetics or from competition with a known ligand. A word on the Emax: it is the greatest response seen or fitted, relative to the assay's reference. One may read the GI50 as the concentration giving 50% growth inhibition.

Read-outs that look alike come from different tables or passages of the source. Bounds are passed on as bounds.

Data set [1] deals with T1, BRD9 (Homo sapiens, UniProt Q9H8M2).
T1 sequence (Q9H8M2 1-597): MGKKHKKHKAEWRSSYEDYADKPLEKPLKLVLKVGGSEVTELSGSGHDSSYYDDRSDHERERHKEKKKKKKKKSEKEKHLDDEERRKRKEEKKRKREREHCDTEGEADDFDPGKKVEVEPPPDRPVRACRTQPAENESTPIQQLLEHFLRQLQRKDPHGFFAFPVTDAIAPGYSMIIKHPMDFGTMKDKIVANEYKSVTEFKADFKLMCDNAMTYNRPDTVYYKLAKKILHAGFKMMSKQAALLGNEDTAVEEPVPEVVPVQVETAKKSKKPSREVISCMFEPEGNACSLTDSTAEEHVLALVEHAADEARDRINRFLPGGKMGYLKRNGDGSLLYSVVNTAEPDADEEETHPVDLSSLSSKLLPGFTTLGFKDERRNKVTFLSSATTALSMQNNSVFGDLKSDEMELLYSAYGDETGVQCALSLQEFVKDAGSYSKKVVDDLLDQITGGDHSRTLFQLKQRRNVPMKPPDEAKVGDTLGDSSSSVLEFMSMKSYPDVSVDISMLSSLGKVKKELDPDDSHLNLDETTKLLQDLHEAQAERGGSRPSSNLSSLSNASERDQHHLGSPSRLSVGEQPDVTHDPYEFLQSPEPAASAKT
The data set can be described thus: In-vivo BRD9 degradation in the Aska-SS xenograft model. As to conditions: various concentrations and times, FIG. 13.

Data set [2] has as its target T1, BRD9. The data set can be described thus: BRD9 binding (Ki).
In the next data set the target is T2, BRD7 (Homo sapiens, UniProt Q9NPI1).
T2 construct: endogenously expressing BRD7 with HiBiT fusion tag via CRISPR; host or cells: 293T.167 (BRD7-HiBiT), also expressing LgBiT ectopically
T2 sequence (Q9NPI1 whole entry, the tested form may be a part): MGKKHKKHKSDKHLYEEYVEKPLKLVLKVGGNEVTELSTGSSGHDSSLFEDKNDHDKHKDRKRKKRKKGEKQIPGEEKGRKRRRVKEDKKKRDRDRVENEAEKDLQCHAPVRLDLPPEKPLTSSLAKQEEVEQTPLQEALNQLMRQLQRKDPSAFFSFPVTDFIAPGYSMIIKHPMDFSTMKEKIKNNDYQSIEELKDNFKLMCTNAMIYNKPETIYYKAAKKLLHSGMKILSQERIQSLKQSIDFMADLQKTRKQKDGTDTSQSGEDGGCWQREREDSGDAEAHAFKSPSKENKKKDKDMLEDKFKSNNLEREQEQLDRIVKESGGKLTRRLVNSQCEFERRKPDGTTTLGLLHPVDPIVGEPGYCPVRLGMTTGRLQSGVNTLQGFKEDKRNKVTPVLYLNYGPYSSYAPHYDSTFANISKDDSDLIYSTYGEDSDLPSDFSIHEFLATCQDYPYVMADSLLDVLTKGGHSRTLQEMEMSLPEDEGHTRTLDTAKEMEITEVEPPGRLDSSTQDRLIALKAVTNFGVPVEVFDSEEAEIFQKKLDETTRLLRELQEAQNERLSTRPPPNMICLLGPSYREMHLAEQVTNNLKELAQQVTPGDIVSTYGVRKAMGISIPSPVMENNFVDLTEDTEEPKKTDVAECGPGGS
The data set can be described thus: BRD7 degradation (24 h), HiBiT 293T.167 cells. The format is cell-based. An excerpt:
(§1) Dulbecco's modified Eagle medium (DMEM) without phenol red and fetal bovine serum (FBS) were purchased from Gibco (Grand Island, N.Y., USA). Nano-Glo® HiBiT Lytic Assay System was purchased from Promega (Madison, Wis., USA). 293T.166 (BRD9-HiBiT) cell line, endogenously expressing BRD9 with HiBiT fusion tag via CRISPR and ectopically expressing LgBiT tag, was purchased from Promega (Madison, Wis., USA). 293T.167 (BRD7-HiBiT) cell line, endogenously expressing BRD7 with HiBiT fusion tag via CRISPR and ectopically expressing LgBiT tag, was purchased from Promega (Madison, Wis., USA). 293T.92 (BRD4-HiBiT) cell line, endogenously expressing BRD4 with HiBiT fusion tag via CRISPR and ectopically expressing LgBiT tag, was generated in-house. Cell culture flasks and 384-well microplates were acquired from VWR (Radnor, Pa., USA).
(§2) BRD9 degradation was determined based on quantification of luminescent signal using Nano-Glo® HiBiT Lytic Assay kit. Test compounds were added to the 384-well plate from a top concentration of 10 μM with 11 points, half log titration in duplicates. 293T.166 cells were added into 384-well plates at a cell density of 10,000 cells per well. […] BRD7 and BRD4 degradation was similarly determined with 293T.167 cells and 293T.92 cells, respectively. […] Luminescence was acquired on EnVision™ Multilabel Reader (PerkinElmer, Santa Clara, Calif., USA).
Background: The HiBiT peptide binds its large partner to form an active luciferase.

For the next data set, the target named is T3, BRD4 (Homo sapiens, UniProt O60885).
T3 construct: endogenously expressing BRD4 with HiBiT fusion tag via CRISPR; endogenous in cells; host or cells: 293T.92 (BRD4-HiBiT), generated in-house, also expressing LgBiT ectopically
The data set can be described thus: BRD4 degradation (24 h), HiBiT 293T.92 cells. The format is cell-based.
Text: as §1, §2

A further data set relates to SW982. The data set can be described thus: SW982 viability (GI50). The format is cell-based. As to conditions: Homo sapiens; SW982 cells.
Another data set deals with IKZF1 (Homo sapiens, UniProt Q13422). The data set can be described thus: IKZF1 degradation. The format is cell-based. Particulars: one value given for IKZF1/SALL4/GSPT1.
Chain of IKZF1 (Q13422 whole entry, species assumed): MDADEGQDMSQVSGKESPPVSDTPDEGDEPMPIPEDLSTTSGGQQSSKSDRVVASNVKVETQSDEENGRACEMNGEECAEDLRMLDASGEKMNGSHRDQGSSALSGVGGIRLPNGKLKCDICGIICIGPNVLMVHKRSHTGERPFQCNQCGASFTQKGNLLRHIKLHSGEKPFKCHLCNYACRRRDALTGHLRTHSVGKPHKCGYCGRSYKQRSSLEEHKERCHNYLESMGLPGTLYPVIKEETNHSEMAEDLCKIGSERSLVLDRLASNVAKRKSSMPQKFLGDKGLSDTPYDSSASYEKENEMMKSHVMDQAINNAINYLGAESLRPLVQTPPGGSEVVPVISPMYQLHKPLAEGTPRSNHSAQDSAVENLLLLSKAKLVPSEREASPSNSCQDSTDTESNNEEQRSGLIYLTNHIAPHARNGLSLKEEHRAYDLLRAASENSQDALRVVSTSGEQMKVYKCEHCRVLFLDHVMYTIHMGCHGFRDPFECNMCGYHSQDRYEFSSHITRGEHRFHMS
The next data set concerns the target CYP 1A2 (Homo sapiens, UniProt P05177). The data set can be described thus: CYP inhibition 1A2. The format is in vitro ADME.
In the next data set the target is CYP 2C9 (Homo sapiens, UniProt P11712). The data set can be described thus: CYP inhibition 2C9. The format is in vitro ADME.
Chain of CYP 2C9 (P11712 whole entry): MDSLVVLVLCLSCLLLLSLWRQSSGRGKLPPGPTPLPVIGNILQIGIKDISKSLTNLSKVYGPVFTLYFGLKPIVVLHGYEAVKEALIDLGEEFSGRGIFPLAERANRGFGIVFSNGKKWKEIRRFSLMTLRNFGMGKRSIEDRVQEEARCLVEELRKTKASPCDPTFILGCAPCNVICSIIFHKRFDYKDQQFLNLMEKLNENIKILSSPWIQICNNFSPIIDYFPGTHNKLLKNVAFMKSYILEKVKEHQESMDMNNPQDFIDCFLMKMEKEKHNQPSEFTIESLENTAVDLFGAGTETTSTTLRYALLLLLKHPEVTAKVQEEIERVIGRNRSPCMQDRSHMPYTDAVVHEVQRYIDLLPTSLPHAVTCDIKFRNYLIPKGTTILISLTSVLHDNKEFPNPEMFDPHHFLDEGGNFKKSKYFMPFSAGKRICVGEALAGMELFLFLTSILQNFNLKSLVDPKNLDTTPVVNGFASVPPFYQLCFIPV
A further data set deals with CYP 2D6 (Homo sapiens, UniProt P10635). The data set can be described thus: CYP inhibition 2D6. The format is in vitro ADME.
Chain of CYP 2D6 (P10635 whole entry): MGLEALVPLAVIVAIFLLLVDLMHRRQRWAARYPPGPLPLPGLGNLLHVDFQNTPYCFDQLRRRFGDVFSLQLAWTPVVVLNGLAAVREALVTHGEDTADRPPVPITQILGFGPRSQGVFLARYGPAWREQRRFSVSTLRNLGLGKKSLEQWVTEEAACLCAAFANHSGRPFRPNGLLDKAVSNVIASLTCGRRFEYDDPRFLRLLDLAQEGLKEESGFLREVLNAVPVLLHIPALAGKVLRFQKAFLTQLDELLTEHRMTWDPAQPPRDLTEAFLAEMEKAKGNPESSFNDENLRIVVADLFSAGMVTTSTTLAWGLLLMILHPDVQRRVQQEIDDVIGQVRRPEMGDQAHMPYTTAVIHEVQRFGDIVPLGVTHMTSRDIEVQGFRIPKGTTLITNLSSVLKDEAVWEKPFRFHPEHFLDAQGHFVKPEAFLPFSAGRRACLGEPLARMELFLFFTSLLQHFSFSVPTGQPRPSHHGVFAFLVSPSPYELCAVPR
The next data set deals with CYP 3A4 (Homo sapiens, UniProt P08684). The data set can be described thus: CYP inhibition 3A4. The format is in vitro ADME.
Chain of CYP 3A4 (P08684 whole entry): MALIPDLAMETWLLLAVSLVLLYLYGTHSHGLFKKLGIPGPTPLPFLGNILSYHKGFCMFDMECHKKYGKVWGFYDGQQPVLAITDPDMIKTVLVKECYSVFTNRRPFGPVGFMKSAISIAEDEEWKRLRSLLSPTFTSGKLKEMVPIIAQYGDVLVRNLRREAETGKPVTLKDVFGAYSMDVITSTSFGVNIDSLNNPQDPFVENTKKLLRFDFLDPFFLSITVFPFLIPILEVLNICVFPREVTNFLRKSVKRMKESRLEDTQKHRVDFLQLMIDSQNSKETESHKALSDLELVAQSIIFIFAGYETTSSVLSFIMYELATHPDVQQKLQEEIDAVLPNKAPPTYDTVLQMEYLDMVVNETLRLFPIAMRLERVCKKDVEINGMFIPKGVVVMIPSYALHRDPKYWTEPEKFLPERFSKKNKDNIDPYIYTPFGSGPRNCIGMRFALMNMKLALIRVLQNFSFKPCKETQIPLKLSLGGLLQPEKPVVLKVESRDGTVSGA
The target in the next data set is CYP 2C8 (Homo sapiens, UniProt P10632). The data set can be described thus: CYP inhibition 2C8. The format is in vitro ADME.
Chain of CYP 2C8 (P10632 whole entry): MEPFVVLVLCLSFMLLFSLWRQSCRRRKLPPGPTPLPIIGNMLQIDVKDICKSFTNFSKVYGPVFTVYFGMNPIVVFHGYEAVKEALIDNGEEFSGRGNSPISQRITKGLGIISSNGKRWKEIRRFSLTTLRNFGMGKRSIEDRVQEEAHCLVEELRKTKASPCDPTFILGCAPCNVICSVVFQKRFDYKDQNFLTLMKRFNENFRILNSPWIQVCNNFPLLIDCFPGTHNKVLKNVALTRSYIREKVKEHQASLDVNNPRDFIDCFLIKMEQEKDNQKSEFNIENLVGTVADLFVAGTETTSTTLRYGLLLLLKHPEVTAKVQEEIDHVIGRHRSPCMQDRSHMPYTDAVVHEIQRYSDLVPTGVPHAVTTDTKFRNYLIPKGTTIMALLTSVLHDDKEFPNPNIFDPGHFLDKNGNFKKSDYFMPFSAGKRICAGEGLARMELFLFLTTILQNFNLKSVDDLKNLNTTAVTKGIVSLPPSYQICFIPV
The target of the next data set is CYP 2C19 (Homo sapiens, UniProt P33261). The data set can be described thus: CYP TDI (time-dependent inhibition). The format is in vitro ADME.
Chain of CYP 2C19 (P33261 whole entry, the tested form may be a part): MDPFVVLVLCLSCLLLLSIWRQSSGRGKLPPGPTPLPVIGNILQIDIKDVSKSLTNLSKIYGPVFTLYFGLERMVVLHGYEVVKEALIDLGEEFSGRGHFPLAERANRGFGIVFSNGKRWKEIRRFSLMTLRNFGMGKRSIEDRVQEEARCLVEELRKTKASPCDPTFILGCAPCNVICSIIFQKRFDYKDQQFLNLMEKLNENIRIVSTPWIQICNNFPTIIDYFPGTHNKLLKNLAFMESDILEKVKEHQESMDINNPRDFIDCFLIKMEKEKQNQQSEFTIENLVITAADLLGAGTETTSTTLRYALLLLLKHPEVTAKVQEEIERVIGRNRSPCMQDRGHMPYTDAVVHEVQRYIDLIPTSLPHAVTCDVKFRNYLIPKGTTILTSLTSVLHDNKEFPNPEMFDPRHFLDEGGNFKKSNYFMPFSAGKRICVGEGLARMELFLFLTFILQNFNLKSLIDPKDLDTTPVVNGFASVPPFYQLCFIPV
The target of data set [3] is T1, BRD9. The data set can be described thus: BRD9 degradation kinetics. The format is cell-based. The arrangement: endogenously expressing BRD9 with HiBiT fusion tag via CRISPR; host or cells: 293T.166 (BRD9-HiBiT), also expressing LgBiT ectopically.
Data set [4] concerns Synovial Sarcoma PDX model (SA13412). The data set can be described thus: Tumor volume in the Synovial Sarcoma PDX model (SA13412). The format is in vivo. As to conditions: various concentrations, FIG. 23.
The nature of data set [5]: Body weight change in synovial sarcoma PDX model (SA13412). The format is in vivo, mice. As to conditions: 50 mg/kg once a day, 25 mg/kg twice a day, 16.6 mg/kg three times a day, FIG. 24. An excerpt:
The x axis is treatment measured in days and the y axis is body weight change measured in percentage. Less than 15% loss of body weight was observed on average.

Chain of CYP 1A2 (P05177 whole entry): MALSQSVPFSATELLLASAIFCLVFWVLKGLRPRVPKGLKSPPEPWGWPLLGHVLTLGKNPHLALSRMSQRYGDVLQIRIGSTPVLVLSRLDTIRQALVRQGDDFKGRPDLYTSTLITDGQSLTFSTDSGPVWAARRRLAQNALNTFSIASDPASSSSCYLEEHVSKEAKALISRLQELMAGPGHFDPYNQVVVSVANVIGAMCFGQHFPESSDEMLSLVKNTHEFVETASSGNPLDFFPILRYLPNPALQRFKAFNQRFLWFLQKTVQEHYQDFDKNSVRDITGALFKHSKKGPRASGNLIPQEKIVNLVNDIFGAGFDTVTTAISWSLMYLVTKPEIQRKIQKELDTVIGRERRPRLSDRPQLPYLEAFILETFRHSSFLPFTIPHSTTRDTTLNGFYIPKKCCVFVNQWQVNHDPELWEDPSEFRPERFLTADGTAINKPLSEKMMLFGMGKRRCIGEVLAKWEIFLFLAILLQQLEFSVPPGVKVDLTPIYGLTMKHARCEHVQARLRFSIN

As to `COc1cc(-c2cn(C)c(=O)c(C)c2C)cc(OC)c1CN1CCC(N2CCN(c3ccc(NC4CCC(=O)NC4=O)cc3F)CC2)C(F)(F)C1` (centres unmarked) [Compound 172, 3-[4-[4-[1-[[2,6-dimethoxy-4-(1,4,5-trimethyl-6-oxo-3-pyridyl)phenyl]methyl]-3,3-difluoro-4-piperidyl]piperazin-1-yl]-3-fluoro-anilino]piperidine-2,6-dione], the “in-vivo BRD9 degradation (normalized concentration)” value on BRD9 [1] was “dose dependent in-vivo BRD9 degradation”. This compound had a Ki on BRD9 [2] of 0.082 µM. The values for the Emax on BRD7 and at BRD4 were 100% and 81%, respectively. Moreover, the DC50 is over 9.99 µM on BRD7 (24 h, read-out: BRD7 degradation (24 h), IP); 2 µM on BRD4 (24 h, read-out: BRD4 degradation (24 h), IP); over 9.99 µM at IKZF1. For the same compound, the GI50 with SW982 is over 10 µM. The IC50 against CYP 1A2 was 30 µM; on CYP 2C9, 30 µM; at CYP 2D6 it was 30 µM; on CYP 3A4, 18.2 µM; against CYP 2C8, 30 µM; on CYP 2C19 (2C19, first of two values in brackets, read-out: CYP TDI 2C19, first value), over 50 µM. In addition, on CYP 2C19 (2C19, second of two values in brackets, read-out: CYP TDI 2C19, second value), the IC50 turned out to be 24 µM. The “BRD9 Degradation kinetics, first value” at BRD9 [3] (first of three values, not explained) is recorded as 11 nM. Also, the “BRD9 Degradation kinetics, second value” on BRD9 [3] (second of three values, not explained) was over 832 nM. Further, at BRD9 [3] (third of three values), the “BRD9 Degradation kinetics, third value (rate)” value is 1.81 h⁻¹.

As for `COc1cc(-c2cn(C)c(=O)c(C)c2C)cc(OC)c1CN1CCC(N2CCN(c3ccc(NC4CCC(=O)NC4=O)cc3F)CC2)C(F)(F)C1` (single isomer, unassigned) [Compound 176, 3-[4-[4-[1-[[2,6-dimethoxy-4-(1,4,5-trimethyl-6-oxo-3-pyridyl)phenyl]methyl]-3,3-difluoro-4-piperidyl]piperazin-1-yl]-3-fluoro-anilino]piperidine-2,6-dione], the “mean tumor volume+SEM” value in data set [4] is reported as “efficacy”. Moreover, in data set [5], the “loss of body weight on average” value was “Less than 15%”.

The values above are taken from patent publication US11691972B2, “Compounds for targeted degradation of BRD9” (C4 Therapeutics, Inc., priority 2020, dated 2023).
